Test results reported in ChEMBL document CHEMBL5614445, “Asymmetric Dirhodium-Catalyzed Modification of Immunomodulatory Imide Drugs and Their Biological Assessment” (ACS Med Chem Lett, 2024).

Key:
Format in all cases: cell-based
[1] = target: Casein kinase I isoform alpha (Homo sapiens) (UniProt P48729); assay: Induction of ePL tagged CK1alpha degradation in human MDS-L cells assessed as remaining protein level incubated for 60 mins by luminescence reader assay relative to control
[2] = target: T1, Eukaryotic peptide chain release factor GTP-binding subunit ERF3A (Homo sapiens, UniProt P15170); assay: Induction of ePL tagged GSPT1 degradation in human DF15 cells incubated for 60 mins by luminescence reader assay; conditions: read-out: EC50 (the source's name)
[3] = target: T1, Eukaryotic peptide chain release factor GTP-binding subunit ERF3A; assay: Induction of ePL tagged GSPT1 degradation in human DF15 cells assessed as remaining protein level incubated for 60 mins by luminescence reader assay relative to control
[4] = target: Zinc finger protein Aiolos (Homo sapiens) (UniProt Q9UKT9); assay: Induction of N-terminal HiBiT tag knocked in IKZF3 degradation in human DF15 cells assessed as remaining protein level incubated for 60 mins by Nano-Glo HiBiT lytic reagent based assay relative to control
Zinc finger protein Aiolos (Homo sapiens), sequence (Q9UKT9 whole entry): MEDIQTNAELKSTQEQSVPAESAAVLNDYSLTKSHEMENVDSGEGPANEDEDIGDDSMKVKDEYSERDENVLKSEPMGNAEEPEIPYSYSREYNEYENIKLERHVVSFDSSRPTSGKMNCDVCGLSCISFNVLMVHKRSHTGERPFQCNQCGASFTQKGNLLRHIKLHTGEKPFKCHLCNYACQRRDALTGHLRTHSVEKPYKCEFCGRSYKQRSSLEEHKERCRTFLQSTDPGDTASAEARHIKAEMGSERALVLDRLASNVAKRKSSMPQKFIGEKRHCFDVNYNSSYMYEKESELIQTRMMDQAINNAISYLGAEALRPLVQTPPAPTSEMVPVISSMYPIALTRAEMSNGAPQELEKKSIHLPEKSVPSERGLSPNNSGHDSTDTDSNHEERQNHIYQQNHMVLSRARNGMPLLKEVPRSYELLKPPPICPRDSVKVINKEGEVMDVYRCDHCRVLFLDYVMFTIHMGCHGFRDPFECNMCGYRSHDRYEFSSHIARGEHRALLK

T1 sequence (P15170 whole entry): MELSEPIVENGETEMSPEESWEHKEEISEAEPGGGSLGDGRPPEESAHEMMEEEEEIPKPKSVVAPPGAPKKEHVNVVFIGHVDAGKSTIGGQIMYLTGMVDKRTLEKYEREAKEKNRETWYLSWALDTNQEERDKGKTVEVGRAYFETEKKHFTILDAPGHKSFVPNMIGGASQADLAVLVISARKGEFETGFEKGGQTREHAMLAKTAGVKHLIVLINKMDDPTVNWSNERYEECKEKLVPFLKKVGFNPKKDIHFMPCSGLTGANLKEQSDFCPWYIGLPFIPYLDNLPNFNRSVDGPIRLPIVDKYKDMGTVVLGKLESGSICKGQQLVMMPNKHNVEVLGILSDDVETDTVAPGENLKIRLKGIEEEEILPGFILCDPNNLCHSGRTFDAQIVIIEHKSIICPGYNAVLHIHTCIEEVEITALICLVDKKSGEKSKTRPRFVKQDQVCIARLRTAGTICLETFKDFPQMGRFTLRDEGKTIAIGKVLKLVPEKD
Casein kinase I isoform alpha (Homo sapiens), sequence (P48729 2-337 limits assumed): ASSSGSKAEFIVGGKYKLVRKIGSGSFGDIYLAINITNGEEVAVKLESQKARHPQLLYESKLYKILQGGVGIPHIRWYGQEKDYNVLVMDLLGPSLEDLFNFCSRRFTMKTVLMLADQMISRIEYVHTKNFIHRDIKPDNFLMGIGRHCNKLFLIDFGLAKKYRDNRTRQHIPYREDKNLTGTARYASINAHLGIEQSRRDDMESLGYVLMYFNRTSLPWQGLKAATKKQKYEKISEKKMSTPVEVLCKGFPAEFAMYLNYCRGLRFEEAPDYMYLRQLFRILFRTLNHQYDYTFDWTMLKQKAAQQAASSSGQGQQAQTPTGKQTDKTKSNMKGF

| Compound | Activity [3] | Activity [4] | further results |
| --- | --- | --- | --- |
| O=C1CCC(N2Cc3cc([C@H]4C[C@@]4(C(=O)OCC(Cl)(Cl)Cl)c4ccc(Br)cc4)ccc3C2=O)C(=O)N1 (some centres undefined) | – | – | Activity [1]: 44% |
| O=C1CCC(N2Cc3cc([C@@H]4C[C@]4(C(=O)OCC(Cl)(Cl)Cl)c4ccc(Br)cc4)ccc3C2=O)C(=O)N1 (some centres undefined) | – | – | Activity [1]: 92% |
| O=C1CCC(N2C(=O)c3ccc(C4=C[C@@]4(C(=O)OCC(Cl)(Cl)Cl)c4ccc(Br)cc4)cc3C2=O)C(=O)N1 (some centres undefined) | 1.4% | – | DC50 [2]: 1400 nM |
| O=C1CCC(N2C(=O)c3cccc([C@H]4C[C@@]4(C(=O)OCC(Cl)(Cl)Cl)c4ccc(Br)cc4)c3C2=O)C(=O)N1 (some centres undefined) | – | 99% | – |
| O=C1CCC(N2Cc3c(cccc3C3=C[C@]3(C(=O)OCC(Cl)(Cl)Cl)c3ccc(Br)cc3)C2=O)C(=O)N1 (some centres undefined) | – | 9.2% | – |
| O=C1CCC(N2Cc3c(cccc3[C@@H]3C[C@]3(C(=O)OCC(Cl)(Cl)Cl)c3ccc(Br)cc3)C2=O)C(=O)N1 (some centres undefined) | – | 79% | – |

More lines, main results first:

| Activity [3] | Activity [4] | Compound | further results |
| --- | --- | --- | --- |
| 2.3% | – | O=C1CCC(N2C(=O)c3ccc(C4=C[C@]4(C(=O)OCC(Cl)(Cl)Cl)c4ccc(Br)cc4)cc3C2=O)C(=O)N1 (some centres undefined) | – |
| 100% | – | O=C1CCC(N2C(=O)c3ccc([C@@H]4C[C@]4(C(=O)OCC(Cl)(Cl)Cl)c4ccc(Br)cc4)cc3C2=O)C(=O)N1 (some centres undefined) | – |
